# Biological target: T1, horseradish peroxidase (HRP) (Armoracia rusticana, UniProt P00433)
# T1 construct: gene PRXC1A; commercial horseradish peroxidase
# T1 sequence (P00433 31-338): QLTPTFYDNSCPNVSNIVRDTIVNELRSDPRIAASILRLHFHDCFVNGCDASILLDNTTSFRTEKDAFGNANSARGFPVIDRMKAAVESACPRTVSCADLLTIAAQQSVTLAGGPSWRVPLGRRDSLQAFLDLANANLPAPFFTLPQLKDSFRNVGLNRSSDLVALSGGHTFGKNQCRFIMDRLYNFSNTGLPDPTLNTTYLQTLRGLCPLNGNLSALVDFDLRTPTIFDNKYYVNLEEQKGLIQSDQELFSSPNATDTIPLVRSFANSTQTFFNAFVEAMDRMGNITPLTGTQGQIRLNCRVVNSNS
# Test: UV-vis absorption difference spectra (data not shown)
# Format: binding
compound,measurement,value
CC(=O)O [acetate],UV-vis absorption difference spectra (data not shown),both HRP and PKS demonstrated similar effects with acetate in the current study (data not shown)

# — paper PMC12515563, “Kinetic, Spectral, and Structural Characterization of a Heme-Containing Peroxidase From the Skin of Cucurbita maxima” (Biochemistry Research International, 2025)
